Where no end group is shown, it is not given here.
Columns and labels:
Assay type in all cases: binding, human
[1] = test system: IgE antibody from one patient having allergies to salmons and bastard halibut; experiment: Confirmation of epitope cross-reactivity (ELISA, FIG. 5); details: for binding of IgE antibody to peptide: serum of fish-allergic patient with symptoms to salmon and bastard halibut vs serum mixture from 4 non-fish-allergic subjects, FIG. 5
Excerpt: FIG. 5 is a diagram showing results of measuring […] using the sera of a fish-allergic patient and a non-fish-allergic subject as to a peptide of epitope No. 11 (SEQ ID NO: 160) having the amino acid sequence “SMVLVKMKEIAEAYL” derived from salmon heat shock cognate 70 kDa protein, and a peptide having the amino acid sequence “AMVLVKMKETAEAYL” derived from bastard halibut heat shock cognate 70 kDa protein. The numeric values on the ordinate represent absorbance for light at a wavelength of 450 nm.
Amino acids other than particularly important amino acids in the region (SEQ ID NO: 250) important for binding, in epitope No. 11 having the amino acid sequence “SMVLVKMKEIAEAYL” (SEQ ID NO: 160) found in salmon heat shock cognate 70 kDa protein in Table 3 were defined as any given amino acid (X). NCBI was searched for proteins having the resulting amino acid sequence “EXXXXYL” (SEQ ID NO: 248). As a result, the amino acid sequence “AMVLVKMKETAEAYL” (SEQ ID NO: 451) of bastard halibut heat shock 70 kDa protein (accession number: XP_019944736.1) was identified. […]
To be specific, ELISA was carried out according to the following procedure. • (1) The concentrations of the biotinylated peptides were adjusted to 1 μg/mL with PBST. • (2) Each peptide solution was added at 40 μL to each well of a 384-well plate coated with streptavidin, and shaken at room temperature for one hour. […] Absorbance at 450 nm was measured.
A peptide having this amino acid sequence “AMVLVKMKETAEAYL” of bastard halibut heat shock 70 kDa protein and a peptide having the amino acid sequence “SMVLVKMKEIAEAYL” of salmon heat shock cognate 70 kDa protein were each prepared by the same procedure as in Example 10(A), and the presence or absence of binding thereto of IgE antibodies present in the serum of a fish-allergic patient having allergy symptoms to salmon and bastard halibut and the serum of a non-fish-allergic subject (serum mixture from 4 subjects) was measured by the same technique as therein.

[2] = test system: IgE antibody in the serum of a fish-allergic patient; experiment: Immunoblotting of two-dimensional electrophoresis patterns of fish meat proteins with patient serum; details: for spots detected by immunoblotting, different from spots with serum of non-fish-allergic subject: proteins contained in salmon meat; for specific binding to IgE antibodies from fish-allergic patients: spots in two-dimensional electrophoresis gel of proteins in fish, patients diagnosed with immediate-type allergy
Procedure: Proteins contained in fish were analyzed by the aforementioned technique to identify antigens of an allergy to fish. To be specific, proteins were extracted from fish meat and subjected to two-dimensional electrophoresis under the conditions described below.
The electrophoresis in the first dimension was isoelectric focusing, which was performed using isoelectric focusing gels with a gel-strip length of 5 to 10 cm and a gel pH range of 3 to 10. The pH gradient of the gels in the direction of electrophoresis was as follows: with the total gel-strip length being taken as 1, the gel-strip length up to pH 5 was “a=0.15 to 0.3”, the gel-strip length from pH 5 to 7 was “b=0.4 to 0.7”, and the gel-strip length above pH 7 was “c=0.15 to 0.3”. More specifically, the isoelectric focusing was performed using the IPG gels, Immobiline Drystrip (pH3-10NL), produced by GE Healthcare Bio-Sciences Corporation (hereinafter abbreviated as “GE”). The electrophoresis system used was IPGphor produced by GE. The maximum current of the electrophoresis system was limited to 75 μA per gel strip. The voltage program adopted to perform the first-dimensional isoelectric focusing was as follows: (1) a constant voltage step was performed at a constant voltage of 300 V until the volt-hours reached 750 Vhr (the current variation width during electrophoresis for 30 minutes before the end of this step was 5 μA); (2) the voltage was increased gradually to 1000 V for 300 Vhr; (3) the voltage was further increased gradually to 5000 V for 4500 Vhr; and then (4) the voltage was held at a constant voltage of 5000 V until the total Vhr reached 12000.
The electrophoresis in the second dimension was SDS-PAGE, which was performed using polyacrylamide gels whose gel concentration at the distal end in the direction of electrophoresis was set to 3 to 6% and whose gel concentration at the proximal end was set to a higher value than that at the distal end. More specifically, the SDS-PAGE was performed using NuPAGE 4-12% Bris-Tris Gels (IPG well, Mini, 1 mm) produced by Life Technologies. The electrophoresis system used was XCell SureLock Mini-Cell produced by Life Technologies. The electrophoresis was run at a constant voltage of 200 V for about 45 minutes using an electrophoresis buffer composed of 50 mM MOPS, 50 mM Tris base, 0.1% (w/v) SDS and 1 mM EDTA.
Identification of antigens by immunoblotting was carried out by taking all the steps up to the step of “Second-dimensional SDS-PAGE” as described above in Example 1, followed by the steps of “Transfer to membrane”, “Immunoblotting” and “Analysis” as described below.
To be specific, proteins in the second-dimensional electrophoresis gels were transferred to a membrane (PVDF membrane) according to the following procedure. • (1) The PVDF membrane was immersed in 100% methanol followed by milliQ water, and then moved into the transfer buffer to hydrophilize the PVDF membrane. • (2) After sponge, filter paper, the second-dimensional electrophoresis gels treated by second-dimensional SDS-PAGE, the hydrophilized PVDF membrane, filter paper, and sponge were put in place in this order, the transfer system was energized at a constant voltage of 30 V for one hour. Immunoblotting
Immunoblotting of the membrane was carried out using, as a primary antibody, a serum sample from patient 1 with a fish allergy or a serum sample from a non-fish-allergic subject. This fish-allergic patient 1 was a patient diagnosed with immediate-type allergy to fish. […]

[3] = test system: IgE antibodies from patients; experiment: Epitope mapping (2): overlapping 10-amino-acid peptide fragments shifted by one amino acid; details: positions numbered within the 15-amino-acid epitope; serum of 5 patients
Excerpt: On the basis of the sequences (SEQ ID NOs: 150-154 for alpha-actinin-3, SEQ ID NO: 155 for EEF1A2 binding protein-like, SEQ ID NOs: 156 and 157 for alpha-1,4-glucan phosphorylase, SEQ ID NOs: 158 and 159 for elongation factor 2, SEQ ID NOs: 160-162 for heat shock cognate 70 kDa protein, SEQ ID NOs: 163-167 for serotransferrin, SEQ ID NOs: 168-171 for myosin binding protein H-like, SEQ ID NOs: 172-174 for desmin (fragment), SEQ ID NOs: 175-178 for capping protein (actin filament) muscle Z-line beta, SEQ ID NOs: 179-185 for myosin heavy chain, fast skeletal muscle-like, SEQ ID NO: 186 for glycogen phosphorylase, muscle form-like, SEQ ID NOs: 187-196 for myosin-binding protein C, fast-type-like, SEQ ID NO: 197 for ATP synthase subunit beta, mitochondrial, SEQ ID NO: 198 for L-lactate dehydrogenase A chain-like, SEQ ID NO: 199 for aldolase, SEQ ID NOs: 200-202 for β-enolase, and SEQ ID NOs: 203 and 204 for glyceraldehyde-3-phosphate dehydrogenase) of the peptides bound to an IgE antibody in serum in a patient-specific manner as described above in (A), a library of overlapping peptide fragments (length: 10 amino acids) was prepared using the sequences of the peptides and sequences in which sequences were added so as to flank each peptide in the amino acid sequences of allergen components (SEQ ID NO: 2 for alpha-actinin-3, SEQ ID NO: 5 for EEF1A2 binding protein-like, SEQ ID NO: 10 for alpha-1,4-glucan phosphorylase, SEQ ID NO: 19 for elongation factor 2, SEQ ID NO: 26 for heat shock cognate 70 kDa protein, SEQ ID NO: 33 for serotransferrin, SEQ ID NO: 43 for myosin binding protein H-like, SEQ ID NO: 56 for desmin (fragment), SEQ ID NO: 61 for capping protein (actin filament) muscle Z-line beta, SEQ ID NO: 70 for myosin heavy chain, fast skeletal muscle-like, SEQ ID NO: 110 for glycogen phosphorylase, muscle form-like, SEQ ID NO: 121 for myosin-binding protein C, fast-type-like, SEQ ID NO: 138 for ATP synthase subunit beta, mitochondrial, SEQ ID NO: 144 for L-lactate dehydrogenase A chain-like, SEQ ID NO: 445 for aldolase, SEQ ID NO: 446 for β-enolase, and SEQ ID NO: 447 for glyceraldehyde-3-phosphate dehydrogenase) comprising the sequences of the peptide. Epitope mapping was carried out using the library.
The peptides to be synthesized were shifted by one amino acid.
The library was prepared by the same procedure as described above in (A), and the presence or absence of binding of an IgE antibody present in the serum of a patient and a non-fish-allergic subject to each peptide fragment was measured by the same technique as described above. Amino acids at positions where the binding activity against IgE antibodies from patients were lost or decreased in the peptides shifted by one amino acid while binding activity against IgE antibodies from non-fish-allergic subjects arose were confirmed as amino acids adversely affecting the specificity of binding to IgE antibodies.
Chemiluminescence intensity in images obtained by measurement was converted into a numeric value in the same manner as in (A) using ImageQuant TL (GE Healthcare). […]

[4] = serum from fish-allergic patient 3 (FIG. 1B right)

Substance: SMVLVKMKEIAEAYL (not fully specified (N-terminus)) [Epitope No. 11]
- binding of IgE antibody to peptide [1]: bound in a patient-specific manner

Substance: AMVLVKMKETAEAYL (not fully specified (N-terminus))
- binding of IgE antibody to peptide [1]: bound in a patient-specific manner

Substance: ATP synthase subunit beta, mitochondrial [Spot 13]
- spots detected by immunoblotting, different from spots with serum of non-fish-allergic subject [2, 4]: newly detected
- specific binding to IgE antibodies from fish-allergic patients [2]: specific binding to IgE antibodies

Substance: 11 (SMVLVKMKEIAEAYL; not fully specified (N-terminus)) [compound 11]
- Positions of amino acids of region important for binding in epitope [3]: 9-15
- epitope cross-reactivity ([1]; between fish species): cross-reactivity between the fish species salmon and bastard halibut

Substance: Heat shock cognate 70 kDa protein [Spot 5]
- specific binding to IgE antibodies from fish-allergic patients [2]: specific binding to IgE antibodies

Substance: Myosin heavy chain, fast skeletal muscle-like [Spot 10]
- spots detected by immunoblotting, different from spots with serum of non-fish-allergic subject [2, 4]: newly detected
- specific binding to IgE antibodies from fish-allergic patients [2]: specific binding to IgE antibodies

Substance: Elongation factor 2 [Spot 4]
- specific binding to IgE antibodies from fish-allergic patients [2]: specific binding to IgE antibodies

Substance: Capping protein (actin filament) muscle Z-line beta [Spot 9]
- spots detected by immunoblotting, different from spots with serum of non-fish-allergic subject ([2]; serum from fish-allergic patient 2 (FIG. 1B left)): detected
- specific binding to IgE antibodies from fish-allergic patients [2]: specific binding to IgE antibodies

Reference: patent publication US12630594B2, “Allergy antigen and epitope for same” (HOYU CO., LTD., priority 2017, dated 2026)
